Data on 4 molecules can be found in patent publication US20160186067A1, “METHODS AND SYSTEMS FOR […]” (SHELL OIL COMPANY, priority 2014, published 2016).

The nature of this data set: Partitioning of reaction intermediates and solvents between upper toluene-rich and lower aqueous phases (toluene extraction). The settings on record: for Kow UL/LL (partition coefficients for toluene extraction): upper toluene-rich layer / lower aqueous-rich layer, toluene added to reactor product of wood digestion, stirred at 150° C. for 2 hours, then cooled and decanted; for Phase preference in toluene extraction: upper organic vs lower aqueous phase, Example 2. On the procedure:
The injector temperature was set at 250° C., and the detector temperature was set at 300° C. A range of alkanes, ketone and aldehyde monooxygenates as well as residual glycol intermediates including ethylene glycol (EG), 1,2-propylene glycol (PG) and glycerol were observed, along with phenolic components from the initial charge of solvent, and those formed in reaction.
Reaction cycles entailed 1 hour at 160° C., followed by 1 hour at 190° C., followed by 3 hours at 240° C. Six cycles of wood addition were effected, followed by heating overnight at 270° C. under 52 bar of H2 to complete the conversion of intermediates.
Stirring was then stopped, and the reactor was allowed to cool. […] Catalyst was left on the reactor bottom.

Regarding `OCCO` [EG, ethylene glycol], the “Kow UL/LL (partition coefficients for toluene extraction)” value (shortened to “Kow UL/LL”) was 0.42.
`Cc1cccc(C)c1O` [xylenol, 2,6-xylenol]: the “Phase preference in toluene extraction” value is listed as “highly favored the upper organic-rich phase” and the “Kow UL/LL” value is reported as 51.79.
The like results for `CCCc1ccc(O)c(OC)c1` [MPP, 2-methoxy-4-propylphenol] were, in that order, “highly favored the upper organic-rich phase” and 33.59.
Turning to `CC(O)CO` (stereo not drawn) [PG, 1,2-propylene glycol], the “Kow UL/LL” value is on record as 5.09.
